Measurements as given in PubChem BioAssay AID190 (DTP/NCI, 2004).
“And” between values parts separate entries of the source, which are not always exact repeats. Equal entries are not always repeated. Toxic doses and inconclusive results are not listed.

System: AKR/Lw mice, AKR lymphoma ip, median survival T/C
Test: NCI In Vivo Anticancer Drug Screen. Data for tumor model Lymphoma AKR (Transplanted) (intraperitoneal) in AKR/Lw mice
Details: endpoint: median survival time, higher = longer survival
Method: The antitumor activity of compounds was measured in mice bearing transplantable tumors. Survival or tumor size were measured and the results are expressed as the measurement made in the treated group (T) divided by the measurement made in the vehicle treated control group (C). The tumor model used in this assay is Lymphoma AKR (Transplanted) (intraperitoneal) in AKR/Lw mice

[1] = dose: 400.0 mg/kg/injection, schedule: Q01DX001 (ip), vehicle: saline
[2] = dose: 100.0 mg/kg/injection, schedule: Q01DX001 (ip), vehicle: saline
[3] = dose: 200.0 mg/kg/injection, schedule: Q01DX001 (ip), vehicle: saline

`O=P1(NCCCl)OCCCN1CCCl` (stereo unspecified) was tested, and the T/C (dose: 5.0 mg/kg/injection, schedule: Q01DX009 (ip), vehicle: saline) was 108 % of control, the T/C (dose: 6.25 mg/kg/injection, schedule: Q04DX003 (ip), vehicle: saline) was 96 % of control and the T/C (dose: 10.0 mg/kg/injection, schedule: Q01DX009 (ip), vehicle: saline) was 110 % of control and 113 % of control. The T/C (dose: 12.5 mg/kg/injection, schedule: Q04DX003 (ip), vehicle: saline) was 96 % of control, the T/C (dose: 18.7 mg/kg/injection, schedule: Q01DX001 (ip), vehicle: saline) was 95 % of control and the T/C (dose: 18.75 mg/kg/injection, schedule: Q01DX001 (ip), vehicle: saline) was 97 % of control. The T/C (dose: 25.0 mg/kg/injection, schedule: Q01DX001 (ip), vehicle: saline) was 120 % of control, the T/C (dose: 37.5 mg/kg/injection, schedule: Q01DX001 (ip), vehicle: saline) was 95 % of control and 113 % of control and the T/C (dose: 37.5 mg/kg/injection, schedule: Q04DX003 (ip), vehicle: saline) was 95 % of control. For the same compound, the T/C (dose: 50.0 mg/kg/injection, schedule: Q01DX001 (sc), vehicle: steriod suspending solution) was 103 % of control, the T/C (dose: 54.0 mg/kg/injection, schedule: Q01DX001 (ip), vehicle: saline with Tween-80) was 162 % of control and the T/C (dose: 54.0 mg/kg/injection, schedule: Q07DX002 (ip), vehicle: water) was 155 % of control. For the same compound, the T/C (dose: 60.0 mg/kg/injection, schedule: Q01DX009 (ip), vehicle: saline) was 115 % of control, the T/C (dose: 75.0 mg/kg/injection, schedule: Q07DX003 (ip), vehicle: saline) was 168 % of control and 184 % of control and 186 % of control and the T/C (dose: 80.0 mg/kg/injection, schedule: Q01DX009 (ip), vehicle: saline) was 90 % of control. For the same compound, the T/C (dose: 100.0 mg/kg/injection, schedule: Q07DX003 (ip), vehicle: saline) was 189 % of control, the T/C (dose: 108.0 mg/kg/injection, schedule: Q01DX001 (ip), vehicle: saline with Tween-80) was 346 % of control and the T/C (dose: 108.0 mg/kg/injection, schedule: Q07DX002 (ip), vehicle: water) was 355 % of control. The T/C (dose: 125.0 mg/kg/injection, schedule: Q01DX001 (ip), vehicle: saline) was 113 % of control and 153 % of control and 222 % of control, the T/C (dose: 125.0 mg/kg/injection, schedule: Q01DX001 (sc), vehicle: steriod suspending solution) was 153 % of control and the T/C (dose: 125.0 mg/kg/injection, schedule: Q04DX003 (ip), vehicle: saline) was 182 % of control and 236 % of control. For the same compound, the T/C (dose: 125.0 mg/kg/injection, schedule: Q07DX003 (ip), vehicle: saline) was 157 % of control, the T/C (dose: 216.0 mg/kg/injection, schedule: Q01DX001 (ip), vehicle: saline with Tween-80) was 375 % of control and the T/C (dose: 216.0 mg/kg/injection, schedule: Q07DX002 (ip), vehicle: water) was 333 % of control. For the same compound, the T/C (dose: 250.0 mg/kg/injection, schedule: Q01DX001 (ip), vehicle: saline) was 120 % of control and 222 % of control, the T/C (dose: 250.0 mg/kg/injection, schedule: Q01DX001 (sc), vehicle: steriod suspending solution) was 120 % of control and the T/C (dose: 250.0 mg/kg/injection, schedule: Q04DX003 (ip), vehicle: saline) was 221 % of control and 236 % of control. The T/C (dose: 300.0 mg/kg/injection, schedule: Q04DX003 (ip), vehicle: saline) was 105 % of control, the T/C [1] was 86 % of control and the T/C (dose: 400.0 mg/kg/injection, schedule: Q01DX001 (sc), vehicle: steriod suspending solution) was 123 % of control. For the same compound, the T/C (dose: 432.0 mg/kg/injection, schedule: Q01DX001 (ip), vehicle: saline with Tween-80) was 375 % of control and the T/C (dose: 600.0 mg/kg/injection, schedule: Q01DX001 (ip), vehicle: saline) was 111 % of control.
With `O=C(O)C12CCC(CC1)C2` the T/C (dose: 25.0 mg/kg/injection, schedule: Q04DX003 (ip), vehicle: saline) was 110 % of control, the T/C (dose: 50.0 mg/kg/injection, schedule: Q04DX003 (ip), vehicle: saline) was 102 % of control and the T/C [2] was 103 % of control. For the same compound, the T/C (dose: 100.0 mg/kg/injection, schedule: Q04DX003 (ip), vehicle: saline) was 100 % of control, the T/C [3] was 105 % of control and the T/C [1] was 105 % of control.
With `c1ccc(C[N+](Cc2ccccc2)=C2CCCCC2)cc1` the T/C [2] was 111 % of control and the T/C [3] was 114 % of control.
With `Nc1ncn(C2OC(CO)C(O)C2O)c(=O)n1` (stereo unspecified) the T/C (dose: 0.06 mg/kg/injection, schedule: Q04DX008 (ip), vehicle: saline) was 116 % of control, the T/C (dose: 0.12 mg/kg/injection, schedule: Q04DX004 (ip), vehicle: saline) was 109 % of control and the T/C (dose: 0.25 mg/kg/injection, schedule: Q04DX004 (ip), vehicle: saline) was 118 % of control. For the same compound, the T/C (dose: 0.38 mg/kg/injection, schedule: Q04DX003 (ip), vehicle: saline) was 88 % of control, the T/C (dose: 0.5 mg/kg/injection, schedule: Q04DX008 (ip), vehicle: saline) was 180 % of control and the T/C (dose: 0.75 mg/kg/injection, schedule: Q01DX009 (ip), vehicle: water) was 240 % of control. The T/C (dose: 1.0 mg/kg/injection, schedule: Q04DX004 (ip), vehicle: saline) was 152 % of control, the T/C (dose: 1.0 mg/kg/injection, schedule: Q04DX008 (ip), vehicle: saline) was 155 % of control and the T/C (dose: 1.5 mg/kg/injection, schedule: Q01DX009 (ip), vehicle: saline) was 92 % of control. For the same compound, the T/C (dose: 1.5 mg/kg/injection, schedule: Q01DX009 (ip), vehicle: water) was 153 % of control, the T/C (dose: 2.0 mg/kg/injection, schedule: Q04DX004 (ip), vehicle: saline) was 185 % of control and the T/C (dose: 2.0 mg/kg/injection, schedule: Q04DX008 (ip), vehicle: saline) was 159 % of control. The T/C (dose: 2.5 mg/kg/injection, schedule: Q01DX001 (ip), vehicle: saline) was 95 % of control and 114 % of control, the T/C (dose: 2.5 mg/kg/injection, schedule: Q04DX003 (ip), vehicle: saline) was 122 % of control and the T/C (dose: 3.0 mg/kg/injection, schedule: Q01DX009 (ip), vehicle: water) was 265 % of control. The T/C (dose: 3.0 mg/kg/injection, schedule: Q04DX004 (ip), vehicle: saline) was 150 % of control and 252 % of control, the T/C (dose: 3.0 mg/kg/injection, schedule: Q04DX008 (ip), vehicle: saline) was 150 % of control and the T/C (dose: 4.4 mg/kg/injection, schedule: Q04DX004 (ip), vehicle: saline) was 163 % of control and 223 % of control. For the same compound, the T/C (dose: 4.4 mg/kg/injection, schedule: Q04DX008 (ip), vehicle: saline) was 166 % of control and 180 % of control, the T/C (dose: 5.0 mg/kg/injection, schedule: Q04DX003 (ip), vehicle: saline) was 124 % of control and the T/C (dose: 6.0 mg/kg/injection, schedule: Q01DX001 (ip), vehicle: saline) was 92 % of control and 121 % of control. The T/C (dose: 6.0 mg/kg/injection, schedule: Q01DX009 (ip), vehicle: water) was 96 % of control, the T/C (dose: 6.25 mg/kg/injection, schedule: Q01DX001 (ip), vehicle: saline) was 90 % of control and the T/C (dose: 10.0 mg/kg/injection, schedule: Q04DX003 (ip), vehicle: saline) was 124 % of control. For the same compound, the T/C (dose: 10.0 mg/kg/injection, schedule: Q04DX004 (ip), vehicle: saline) was 163 % of control, the T/C (dose: 10.0 mg/kg/injection, schedule: Q04DX008 (ip), vehicle: saline) was 152 % of control and 169 % of control and the T/C (dose: 12.0 mg/kg/injection, schedule: Q01DX001 (ip), vehicle: saline with Tween-80) was 162 % of control. For the same compound, the T/C (dose: 12.0 mg/kg/injection, schedule: Q01DX001 (ip), vehicle: saline) was 92 % of control and 121 % of control, the T/C (dose: 12.0 mg/kg/injection, schedule: Q04DX003 (ip), vehicle: water) was 166 % of control and the T/C (dose: 12.5 mg/kg/injection, schedule: Q01DX001 (ip), vehicle: saline) was 105 % of control and 112 % of control. For the same compound, the T/C (dose: 24.0 mg/kg/injection, schedule: Q01DX001 (ip), vehicle: saline with Tween-80) was 178 % of control, the T/C (dose: 30.0 mg/kg/injection, schedule: Q01DX001 (ip), vehicle: saline) was 164 % of control and the T/C (dose: 40.0 mg/kg/injection, schedule: Q01DX001 (ip), vehicle: saline) was 103 % of control. For the same compound, the T/C (dose: 48.0 mg/kg/injection, schedule: Q01DX001 (ip), vehicle: saline with Tween-80) was 206 % of control, the T/C (dose: 80.0 mg/kg/injection, schedule: Q01DX001 (ip), vehicle: saline) was 119 % of control and the T/C (dose: 96.0 mg/kg/injection, schedule: Q01DX001 (ip), vehicle: saline with Tween-80) was 375 % of control. For the same compound, the T/C (dose: 15.0 micrograms/kg/injection, schedule: Q01DX009 (ip), vehicle: saline) was 113 % of control, the T/C (dose: 30.0 micrograms/kg/injection, schedule: Q01DX009 (ip), vehicle: saline) was 165 % of control and the T/C (dose: 60.0 micrograms/kg/injection, schedule: Q01DX009 (ip), vehicle: saline) was 150 % of control.
In the case of `COc1cc(N)c2ncccc2c1SC`, the T/C [3] is reported as 102 % of control and the T/C [1] is reported as 106 % of control.
